Results on 50 compounds are retold here after patent US9221814B2, “Heterocyclic guanidine F1F0-atpase inhibitors and therapeutic uses thereof” (Lycera Corporation, priority 2012, dated 2015).

Each structure is given as a SMILES string. pEC50, pIC50: −log10 of the molar value. Where two headings read alike, the source gives them in different places.

For assay [1], the system named is Ramos cells. Put plainly: Cytotoxicity in Ramos cells. Type of assay: cell-based. As to conditions: detection limit EC50=16 μM, read-out: Ramos Cell EC50. How it is done: (§1) Exemplary compounds described in above Examples were tested for activity against F1F0-ATPase by measuring the ability of the compounds to inhibit ATP synthesis. In addition, the compounds were assessed for cytotoxicity in Ramos cells. Inhibition of F1F0-ATPase activity in synthesizing ATP and cytotoxicity in Ramos cells were measured according to the procedures described in K. M. Johnson et al. Chemistry & Biology 2005, 12, 485-496.

Assay [2] addresses T1, F1F0-ATPase (Bos taurus, UniProt P13621).
T1 construct: from tissue
Put plainly: Inhibition of F1F0-ATPase activity in synthesizing ATP (ATP synthesis inhibition). Type of assay: biochemical. As to conditions: detection limit IC50=16 μM, read-out: ATP Syn IC50. How it is done: as §1

As usually defined, the pEC50 is −log10 of the EC50, conventionally taken in molar units. In general, pIC50 refers to the negative decadic logarithm of the IC50, by convention in mol/L. As to `Cc1oncc1C(=O)/N=C(/NCC(C)C)Nc1cc(-c2ccc(F)cc2)[nH]n1` [Compound A-123], in assay [1], the pEC50 was below 4.80. Besides, in assay [2], the negative logarithm of the IC50 (pIC50) is below 4.80.

Turning to `Cc1ccccc1N/C(=N/C(=O)c1cn(C)nc1C(F)(F)F)Nc1cc(-c2ccc(O)c(F)c2)n[nH]1` [Compound A-185], the pEC50 in assay [1] is above 5.30. Besides, the pIC50 in assay [2] was above 5.30.

On to `Cn1cc(C(=O)/N=C(/Nc2cc(F)cc(Cl)c2)Nc2cc(-c3cc(O)ccc3F)n[nH]2)c(C(F)(F)F)n1` [Compound A-180], for which, in assay [1], the pEC50 was above 5.30. Further, the pIC50 in assay [2] was 4.80 to 5.30.

Take `COCC(C)NC(=NC(=O)c1cn(C)nc1C(F)(F)F)Nc1n[nH]c2cc(F)ccc12` (stereo not drawn) [Compound A-207]: the pEC50 in assay [1] is below 4.80. Also, the negative-log IC50 (pIC50) in assay [2] was below 4.80.

Take `CC(C)CN/C(=N/C(=O)c1cn(C)nc1C(F)(F)F)Nc1cc(-c2ccc(O)c(F)c2)n[nH]1` [Compound 3, N-(((3-(3-Fluoro-4-hydroxyphenyl)-1H-pyrazol-5-yl)amino)(isobutylamino)methylene)-1-methyl-3-(trifluoromethyl)-1H-pyrazole-4-carboxamide]: the pEC50 in assay [1] (Homo sapiens) was below 4.80. In assay [2], the negative-log IC50 (pIC50) was 4.80 to 5.30.

On to `COC[C@H](C)N/C(=N/C(=O)c1cc(C)on1)Nc1cc(-c2ccc(F)cc2)n[nH]1` [Compound A-52], for which, in assay [1], the pEC50 is below 4.80. Further, the negative logarithm of the IC50 (pIC50) in assay [2] is below 4.80.

Take `Cn1cc(C(=O)/N=C(\Nc2cc(-c3ccc(O)c(F)c3)n[nH]2)Nc2ccc(F)c(O)c2F)c(C(F)(F)F)n1` [Compound 5, N-(((2,4-Difluoro-3-hydroxyphenyl)amino)((3-(3-fluoro-4-hydroxyphenyl)-1H-pyrazol-5-yl)amino)methylene)-1-methyl-3-(trifluoromethyl)-1H-pyrazole-4-carboxamide]: in assay [1] (Homo sapiens), the pEC50 was 4.80 to 5.30. In addition, the pIC50 in assay [2] is 4.80 to 5.30.

For the compound `CCOC(=O)NC1CCC(N/C(=N\C(=O)c2cc(C)oc2C(F)(F)F)Nc2cc(OC)ccc2C)CC1` (stereo not drawn) [Compound A-212], the pEC50 in assay [1] (Homo sapiens) was 4.80 to 5.30. In addition, the negative logarithm of the IC50 (pIC50) in assay [2] was above 5.30.

Consider `COC[C@H](C)N/C(=N/C(=O)c1cn(C)nc1C(F)(F)F)Nc1cc(-c2ccc(O)cc2F)n[nH]1` [Compound A-140], for which, in assay [1], the pEC50 is below 4.80. Moreover, the pIC50 in assay [2] is below 4.80.

Take `Cn1cc(C(=O)/N=C(/Nc2cccc(Cl)c2)Nc2cc(-c3ccc(O)c(F)c3)n[nH]2)c(C(F)(F)F)n1` [Compound A-162]: the pEC50 in assay [1] was above 5.30. Also, in assay [2], the pIC50 is above 5.30.

As to `COC[C@H](C)N/C(=N\C(=O)c1cn(C)nc1C(F)(F)F)Nc1cc(-c2cc(F)cc(F)c2)n[nH]1` [Compound A-32], the pEC50 in assay [1] is 4.80 to 5.30. For the same compound, in assay [2], the pIC50 was 4.80 to 5.30.

As to `O=C(/N=C(/Nc1cc(F)cc(Cl)c1)Nc1cc(C(F)(F)F)n[nH]1)c1ccc(Cl)s1` [Compound A-210], the pEC50 in assay [1] is above 5.30. Also, in assay [2], the pIC50 is above 5.30.

In the case of `Cc1cc(C(=O)/N=C(/NCc2ccc(F)cc2Cl)Nc2cc(-c3ccc(F)cc3)n[nH]2)n(C)n1` [Compound A-86], in assay [1], the pEC50 is 4.80 to 5.30. Further, the negative logarithm of the IC50 (pIC50) in assay [2] is above 5.30.

Take `CCOCCCN/C(=N/C(=O)c1cnoc1C)Nc1cc(-c2ccc(Cl)cc2)n[nH]1` [Compound A-104]: the pEC50 in assay [1] is below 4.80. Moreover, the pIC50 in assay [2] is below 4.80.

As for `Cc1oncc1C(=O)/N=C(\Nc1cc(-c2cc(F)cc(Cl)c2)n[nH]1)NC1(C)CCCC1` [Compound A-98], the pEC50 in assay [1] is above 5.30. Moreover, in assay [2], the pIC50 was above 5.30.

For `CCC(C)N/C(=N/C(=O)c1cc(C)oc1C(F)(F)F)Nc1cc(-c2ccc(F)cc2)n[nH]1` (stereo not drawn) [Compound A-204], the pEC50 in assay [1] was above 5.30. Moreover, in assay [2], the pIC50 is above 5.30.

Regarding `Cn1nc(C(C)(C)C)cc1C(=O)/N=C(\Nc1cc(-c2ccc(F)cc2)n[nH]1)NC1CCCC1` [Compound A-51], the pEC50 in assay [1] is above 5.30. Further, the pIC50 in assay [2] was above 5.30.

As for `CCOC(=O)NC1CCCC(N/C(=N\C(=O)c2cc(C)oc2C(F)(F)F)Nc2cccc(F)c2)C1` (stereo not drawn) [Compound 2, Ethyl (3-(3-(3-fluorophenyl)-2-(5-methyl-2-(trifluoromethyl)furan-3-carbonyl)guanidino)cyclohexyl)carbamate], in assay [1] (Homo sapiens), the pEC50 is 4.80 to 5.30. Besides, the pIC50 in assay [2] was below 4.80.

Regarding `Cc1cc(C(=O)/N=C(\Nc2cc(-c3ccc(F)cc3)n[nH]2)NC(C)(C)C)on1` [Compound A-40], in assay [1], the pEC50 is below 4.80. The pIC50 in assay [2] was 4.80 to 5.30.

Regarding `Cn1cc(C(=O)/N=C(/Nc2cccc(O)c2)Nc2cc(-c3ccc(O)c(F)c3)n[nH]2)c(C(F)(F)F)n1` [Compound A-170], the pEC50 in assay [1] is above 5.30. Moreover, in assay [2], the pIC50 was 4.80 to 5.30.

In the case of `Cc1nc(C(=O)/N=C(/Nc2ccc3[nH]ncc3c2)Nc2ccccc2C(C)(C)C)cs1` [Compound A-15], in assay [1] (Homo sapiens), the pEC50 was 4.80 to 5.30.

For the compound `COCC(C)NC(=NC(=O)c1cn(C)nc1C(F)(F)F)Nc1n[nH]c2cc(Cl)ccc12` (stereo not drawn) [Compound A-202], in assay [1], the pEC50 is above 5.30. Moreover, the pIC50 in assay [2] is above 5.30.

Take `CCC(C)N/C(=N/C(=O)c1cnoc1C)Nc1cc(-c2cc(F)cc(F)c2)n[nH]1` (stereo not drawn) [Compound A-88]: the pEC50 in assay [1] was 4.80 to 5.30. The pIC50 in assay [2] is above 5.30.

With `CCC(C)N/C(=N/C(=O)c1cnoc1C)Nc1cc(-c2cc(F)cc(Cl)c2)n[nH]1` (stereo not drawn) [Compound A-101], in assay [1], the pEC50 is above 5.30. For the same compound, in assay [2], the negative-log IC50 (pIC50) is above 5.30.

For the compound `Cn1cc(C(=O)/N=C(/Nc2cc(-c3ccc(O)cc3F)n[nH]2)Nc2ccccc2F)c(C(F)(F)F)n1` [Compound 1, N-(((3-(2-Fluoro-4-hydroxyphenyl)-1H-pyrazol-5-yl)amino)((2-fluorophenyl)amino)methylene)-1-methyl-3-(trifluoromethyl)-1H-pyrazole-4-carboxamide], the pEC50 in assay [1] (Homo sapiens) was above 5.30. Further, the pIC50 in assay [2] was 4.80 to 5.30.

Take `Cn1cc(C(=O)/N=C(\Nc2cc(-c3ccc(O)c(F)c3)n[nH]2)Nc2cccc(Cl)c2F)c(C(F)(F)F)n1` [Compound A-177]: in assay [1], the pEC50 is above 5.30. The pIC50 in assay [2] was above 5.30.

For the compound `Cc1cc(C(=O)/N=C(\Nc2ccc(C(F)(F)F)nc2)Nc2cccc(Cl)c2)n(C)n1` [Compound A-230], the pEC50 in assay [1] (Homo sapiens) was above 5.30. In assay [2], the pIC50 was above 5.30.

For the compound `Cc1oncc1C(=O)/N=C(/NCc1ccc(F)cc1Cl)Nc1cc(-c2ccc(F)cc2)n[nH]1` [Compound A-37], in assay [1], the pEC50 is 4.80 to 5.30.

`CCOC(=O)NC1CCC(N/C(=N/C(=O)c2cn(C)nc2C(F)(F)F)Nc2cc(F)cc(F)c2)CC1` (stereo not drawn) [Compound A-217]: the negative logarithm of the EC50 (pEC50) in assay [1] (Homo sapiens) was below 4.80. In addition, in assay [2], the pIC50 was below 4.80.

Take `Cn1cc(C(=O)/N=C(/Nc2ccc(F)c(C#N)c2)Nc2cc(-c3ccc(O)c(F)c3)n[nH]2)c(C(F)(F)F)n1` [Compound A-172]: the negative logarithm of the EC50 (pEC50) in assay [1] was below 4.80. Moreover, the pIC50 in assay [2] is 4.80 to 5.30.

For `COc1cccc(CN/C(=N/C(=O)c2cc(C(C)(C)C)nn2C)Nc2cc(-c3ccc(F)cc3)n[nH]2)c1` [Compound A-46], the pEC50 in assay [1] is above 5.30. Further, the negative logarithm of the IC50 (pIC50) in assay [2] is above 5.30.

In the case of `Cn1cc(C(=O)/N=C(/Nc2cc(F)cc(Cl)c2)Nc2cccc(O)n2)c(C(F)(F)F)n1` [Compound A-234], the pEC50 in assay [1] (Homo sapiens) is above 5.30. The pIC50 in assay [2] is above 5.30.

On to `CC(C)N/C(=N/C(=O)c1cc(C(C)(C)C)nn1C)Nc1cc(-c2ccc(Cl)cc2)n[nH]1` [Compound A-71], for which, in assay [1], the pEC50 is above 5.30. Also, the negative logarithm of the IC50 (pIC50) in assay [2] was 4.80 to 5.30.

For `Cc1nc(C(=O)/N=C(\Nc2cccc(Cl)c2)Nc2ccc3[nH]c(=O)oc3c2)cs1` [Compound A-24], the pEC50 in assay [1] (Homo sapiens) is below 4.80.

As to `Cc1nc(C(=O)/N=C(/Nc2ccc(F)cc2)Nc2ccccc2C(C)(C)C)cs1` [Compound A-14], in assay [1] (Homo sapiens), the pEC50 is below 4.80.

With `Cc1nc(C(=O)/N=C(/Nc2ccc3[nH]c(=O)oc3c2)Nc2ccccc2C(C)(C)C)cs1` [Compound A-16], in assay [1] (Homo sapiens), the pEC50 is below 4.80.

On to `Cc1nc(C(=O)/N=C(\Nc2ccc(Cl)cc2)Nc2ccc3[nH]c(=O)oc3c2)cs1` [Compound A-20], for which the negative logarithm of the EC50 (pEC50) in assay [1] (Homo sapiens) is below 4.80.

For the compound `Cc1nc(C(=O)/N=C(\Nc2cccc(C(F)(F)F)c2)Nc2ccc3[nH]ncc3c2)cs1` [Compound A-11], in assay [1] (Homo sapiens), the pEC50 was below 4.80.

As for `Cc1nc(C(=O)/N=C(\Nc2cccc(C(F)(F)F)c2)Nc2ccc3[nH]c(=O)oc3c2)cs1` [Compound A-12], the pEC50 in assay [1] (Homo sapiens) was below 4.80.

Take `Cc1nc(C(=O)/N=C(/Nc2ccc(N3CCC(O)CC3)cc2)Nc2ccccc2C(C)(C)C)cs1` [Compound A-17]: the pEC50 in assay [1] (Homo sapiens) is below 4.80.

As to `Cc1nc(C(=O)/N=C(\Nc2ccc(Cl)cc2)Nc2ccc(N3CCC(O)CC3)cc2)cs1` [Compound A-21], in assay [1] (Homo sapiens), the pEC50 is below 4.80.

Regarding `Cc1nc(C(=O)/N=C(/Nc2ccc(F)cc2)Nc2cccc(C(F)(F)F)c2)cs1` [Compound A-10], in assay [1] (Homo sapiens), the pEC50 was below 4.80.

With `Cc1nc(C(=O)/N=C(/Nc2ccc(F)cc2)Nc2cccc(Cl)c2)cs1` [Compound A-22], the pEC50 in assay [1] (Homo sapiens) was below 4.80.

As for `Cc1nc(C(=O)/N=C(\Nc2cccc(Cl)c2)Nc2ccc3[nH]ncc3c2)cs1` [Compound A-23], the pEC50 in assay [1] (Homo sapiens) is below 4.80.

Turning to `Cc1cc(C(=O)N=C(Nc2cc(-c3ccc(F)cc3)[nH]n2)NC(C)(C)C)no1` [Compound A-41], the negative logarithm of the IC50 (pIC50) in assay [2] was 4.80 to 5.30.

Take `Cc1nc(C(=O)/N=C(/Nc2ccc(N3CCC(O)CC3)cc2)Nc2cccc(C(F)(F)F)c2)cs1` [Compound A-13]: the pEC50 in assay [1] (Homo sapiens) was below 4.80.

Regarding `Cc1nc(C(=O)/N=C(\Nc2ccc(Cl)cc2)Nc2ccc3[nH]ncc3c2)cs1` [Compound A-19], the negative-log EC50 (pEC50) in assay [1] (Homo sapiens) is below 4.80.

`Cn1nc(C(C)(C)C)cc1C(=O)/N=C(\Nc1cc(-c2ccc(F)cc2)n[nH]1)NC(C)(C)C` [Compound A-43]: in assay [2], the pIC50 was above 5.30.

For `Cc1ccccc1CN/C(=N/C(=O)c1ccno1)Nc1cc(-c2ccc(F)cc2)n[nH]1` [Compound A-39], the pIC50 in assay [2] is 4.80 to 5.30.

As to `Cc1nc(C(=O)/N=C(/Nc2ccc(F)cc2)Nc2ccc(Cl)cc2)cs1` [Compound A-18], the pEC50 in assay [1] (Homo sapiens) is below 4.80.
